How the values were obtained:
[1] = system: CDKI-responsive endogenous genes induced by p21; test: Q-PCR of CDKI-responsive endogenous genes, HT1080 cells with IPTG-inducible p21; format: cell-based, human; settings: 10 μM SNX9, 20 μM SNX9-1; normalized to β-actin
Experimental: For this purpose, we developed real-time RT-PCR (Q-PCR) assays for measuring RNA levels of eleven CDKI-responsive genes. This assay uses a 96-well TurboCapture RNA extraction kit (Qiagen), in which oligo(dT) is covalently bound to the surface of the wells to allow mRNA isolation from cell lysate and cDNA synthesis in the same wells. 5 units/μl of SuperScript III reverse transcriptase (Invitrogen) was added to the wells for 1 hr for cDNA synthesis at 50° C., and 2 μl of the resulting cDNA was then used for Q-PCR analysis using SYBR Green PCR Master Mix (ABI) with ABI 7900HT Q-PCR machine.
This effect argues that the molecular target of these compounds is not a specific CDKI but rather a common downstream mediator of the transcription-inducing effects of different CDKI.

[2] = system: HT1080-derived reporter cell line; test: Growth inhibition and cell death in HT1080-derived reporter cell line; format: cell-based, human; settings: cell death detected microscopically by cell detachment
Source text: The combination of p21 and SNX9-class compounds leads to both G1 and G2/M arrest, at the levels expected for the combined effects of p21 and SNX9 (FIG. 6).

CDK3/cyclinE (h) = target: T1, CDK3/cyclinE (h) (Homo sapiens, UniProt Q00526); test: Cyclin/CDK kinase assay (Upstate), CDK3/cyclinE; format: biochemical; settings: 100 μM, re-tested at 20 and 40 μM (SNX9, SNX2) or 10 and 20 μM (SNX9-1, SNX14)
T1 construct: purchased Upstate Biotechnology, Inc
T1 sequence (Q00526 whole entry): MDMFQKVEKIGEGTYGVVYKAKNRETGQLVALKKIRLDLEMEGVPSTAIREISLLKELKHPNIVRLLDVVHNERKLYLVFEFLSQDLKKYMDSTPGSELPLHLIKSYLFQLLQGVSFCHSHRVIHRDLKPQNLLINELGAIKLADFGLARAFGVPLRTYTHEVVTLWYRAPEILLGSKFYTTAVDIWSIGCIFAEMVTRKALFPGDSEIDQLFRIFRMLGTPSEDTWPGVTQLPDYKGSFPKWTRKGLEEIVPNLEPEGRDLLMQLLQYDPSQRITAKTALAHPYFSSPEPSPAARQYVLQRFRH
T1 sequence (P24864 whole entry partner): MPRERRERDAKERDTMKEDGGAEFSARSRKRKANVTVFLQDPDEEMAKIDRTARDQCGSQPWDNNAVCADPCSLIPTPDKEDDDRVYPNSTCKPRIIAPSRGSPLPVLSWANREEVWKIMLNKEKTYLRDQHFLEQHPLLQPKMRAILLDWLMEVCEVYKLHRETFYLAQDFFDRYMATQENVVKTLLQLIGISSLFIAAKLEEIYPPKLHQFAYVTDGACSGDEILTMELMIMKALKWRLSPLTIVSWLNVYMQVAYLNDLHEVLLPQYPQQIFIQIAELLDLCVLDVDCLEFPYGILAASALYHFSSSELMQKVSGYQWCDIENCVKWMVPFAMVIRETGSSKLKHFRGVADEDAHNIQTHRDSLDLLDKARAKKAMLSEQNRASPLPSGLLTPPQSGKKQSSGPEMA
Experimental: (§1) To test the above hypothesis, we determined whether several CDKI pathway inhibitors, including two SNX9 class compounds (SNX9 and SNX9-1), two compounds of a different structural class (SNX14 and SNX2) and another unrelated inhibitor (SNX35), inhibit the kinase activity of different complexes formed in vitro by purified cyclin/CDK complexes. This analysis was carried out as a service by Upstate Biotechnology, Inc.
(§2) In a final reaction volume of 25 μl, CDK3/cyclinE (h) (5-10 mU) is incubated with 8 mM MOPS pH 7.0, 0.2 mM EDTA, 0.1 mg/ml H1, 10 mM MgAcetate and [γ-33P-ATP] (specific activity approx. 500 cpm/pmol, 200 μM concentration). The reaction is initiated by the addition of the MgATP mix. After incubation for 40 minutes at room temperature, the reaction is stopped by the addition of 5 μl of a 3% phosphoric acid solution. 10 μl of the reaction is then spotted onto a P30 filtermat and washed three times for 5 minutes in 75 mM phosphoric acid and once in methanol prior to drying and scintillation counting.
(§3) At the first step, all the compounds were tested at 100 μM concentration. […] For SNX14 and SNX2, the relative efficacy of inhibition was CDK1>CDK2˜CDK3>CDK6. For SNX9 and SNX9-1, the order was CDK3>CDK1>CDK2>CDK6 (FIG. 12).

CDK6/cyclinD3 (h) = target: T2, CDK6/cyclinD3 (h) (Homo sapiens, UniProt Q00534); test: Cyclin/CDK kinase assay (Upstate), CDK6/cyclinD3; format: biochemical; settings: 100 μM, re-tested at 20 and 40 μM (SNX9, SNX2) or 10 and 20 μM (SNX9-1, SNX14)
T2 construct: purchased Upstate Biotechnology, Inc
T2 sequence (Q00534 whole entry): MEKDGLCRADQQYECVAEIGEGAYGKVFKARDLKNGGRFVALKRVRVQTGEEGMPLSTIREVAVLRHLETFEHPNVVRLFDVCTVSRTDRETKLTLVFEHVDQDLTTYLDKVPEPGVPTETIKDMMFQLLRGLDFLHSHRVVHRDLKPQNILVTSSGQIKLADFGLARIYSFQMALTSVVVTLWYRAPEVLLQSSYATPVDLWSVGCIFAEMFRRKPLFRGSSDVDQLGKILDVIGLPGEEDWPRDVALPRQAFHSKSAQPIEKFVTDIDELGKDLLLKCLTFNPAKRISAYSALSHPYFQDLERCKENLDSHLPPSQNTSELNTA
T2 sequence (P30281 whole entry partner): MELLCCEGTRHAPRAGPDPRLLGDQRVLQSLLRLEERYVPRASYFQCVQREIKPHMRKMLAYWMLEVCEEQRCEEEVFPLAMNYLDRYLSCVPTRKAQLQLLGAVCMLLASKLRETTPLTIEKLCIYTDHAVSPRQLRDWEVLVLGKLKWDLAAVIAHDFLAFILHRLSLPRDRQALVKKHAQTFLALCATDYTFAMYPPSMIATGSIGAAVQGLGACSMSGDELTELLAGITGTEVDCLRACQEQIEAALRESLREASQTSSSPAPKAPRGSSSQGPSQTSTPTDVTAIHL
Experimental: as §1
as §2, with “μl, CDK6/cyclinD3” for “μl, CDK3/cyclinE”, “0.2 mm” for “0.2 mM”
as §3

[3] = system: cyclin/CDK complexes (CDK1, CDK2, CDK3, CDK6); test: Cyclin/CDK kinase assays, comparison over all complexes; format: biochemical, human
Experimental: as §1, §3

[4] = system: human colon (HCT116) cancer xenografts; test: Therapeutic Dose Study in nude mice bearing HCT116 xenografts; format: in vivo; settings: 70 mg/kg intra-tumorally; for decrease in the tumor size on day 31 relative to the control / mice that died or were sacrificed by day 31: 9 injections over three weeks; for mice that died or were sacrificed by day 31: groups of 10, control 60%; for P, decrease in the tumor size on day 31 relative to the control: 9 injections, paired two-tailed t-test, dead or sacrificed mice taken as 2000 mm^3
Experimental: Male NCr nude mice, aged approximately 6-8 weeks were used for the study, which was carried out as a service by Taconic Biotechnology, Rensselaer, N.Y. Animals were maintained under virus free barrier conditions with continuous health monitoring. The administration of test materials, all data collection and disposal of study animals was in compliance with all relevant Taconic Biotechnology Standard Operating Procedures as well as The Guide for the Care and Use of Laboratory Animals. Study animals were observed upon arrival and daily throughout the study for overall health, behavior and morbidity. Test animals were subject to body weight measurement to determine dosage volumes of test articles.
With this information, we then carried out the Therapeutic Dose Study of SNX9 and SNX9-1, in nude mice bearing established human colon (HCT116) cancer xenografts. HCT116 was from American Type Culture Collection (ATCC); ATCC information was referenced for the cryopreservation and growing of the cells. The cells were injected at 5×10^6 subcutaneously in the intra-scapular region. The tumor dimensions were measured using vernier calipers. To approximate the subcutaneous tumor size, the calipers were compressed on the skin slightly but not so tightly as to grip the subcutaneous mass. The maximal dimension of the tumor was recorded as L. The dimension perpendicular to L was recorded as W. The formula: Volume=0.5*L*W^2 was used. Eight days following tumor cell injection into the intra-scapular region, when all the tumor inoculi became palpable, groups of 10 mice were treated for 21 days with PBS (control), SNX9 or SNX9-1 (each at 70 mg/kg), dissolved as in the Range Finder Study.
The compounds were injected intra-tumorally three times a week, on alternating days, for a total of 9 injections per animal over three weeks. Mice were sacrificed when tumor size exceeded 2000 mm^3. […] By day 31 (2 days after the end of treatment), 6 of 10 mice in the control group (60%) died or were sacrificed, as compared to 40% of the mice in SNX9-treated group and only 10% of the mice in SNX9-1 treated group. Statistical analysis of differences in the tumor size on day 31 was carried out using paired two-tailed t-test; for this analysis, the tumor volume of all the mice that died or were sacrificed before day 31 was assumed to be 2000 mm^3.

Row | SMILES | induction of CDKI-responsive endogenous genes by p21 (ratio of RNA levels with and without IPTG) [1] | growth inhibition of the HT1080-derived reporter cell line [2] | kinase activity of CDK3 (CDK3/cyclinE (h)) | kinase activity of CDK6 (CDK6/cyclinD3 (h)) | relative efficacy of inhibition (order of CDKs) [3] | decrease in the tumor size on day 31 relative to the control [4] | mice that died or were sacrificed by day 31 [4] | P, decrease in the tumor size on day 31 relative to the control [4]
1 | NCCc1c[nH]c2c(Cl)cc(Cl)cc12 [SNX9-1] | partially inhibit the induction of all the tested genes | associated with the induction of both cell death (as detected microscopically by cell detachment) and cell cycle arrest | inhibited the kinase activities | inhibited the kinase activities | CDK3>CDK1>CDK2>CDK6 | highly significant | 10% | < 0.01
2 | Cc1[nH]c2c(Cl)cccc2c1CCN [SNX9] | partially inhibit the induction of all the tested genes | associated with the induction of both cell death (as detected microscopically by cell detachment) and cell cycle arrest | inhibited the kinase activities | inhibited the kinase activities | CDK3>CDK1>CDK2>CDK6 | did not reach statistical significance | 40% | < 0.3
